Measured values reported in patent US10435400B2, “2,4-disubstituted phenylene-1,5-diamine derivatives and applications thereof, and pharmaceutical compositions and pharmaceutically acceptable compositions prepared therefrom” (SHANGHAI HAIYAN PHARMACEUTICAL TECHNOLOGY CO., LTD., priority 2014, dated 2019).
Read-outs that look alike come from different tables or passages of the source.

Assays:
EGFR WT kinase = EGFR WT kinase (Homo sapiens (Human), UniProt P00533); assay: Wild type EGFR kinase inhibition test (z-lyte); format: biochemical; conditions: 10 μM ATP
H1975 cells [1] = assay: Cytostatic activity by MTT method, H1975 cells; format: cell-based; conditions: for IC50: read-out: H1975 cells (IC50/nM); for selective inhibitory activity against the cell growth [IC50 (A431 cells)/IC50 (H1975 cells)]: ratio of IC50 values
NIH3T3 cells = assay: Cytotoxicity by MTT method, NIH3T3 cells; format: cell-based; conditions: read-out: NIH3T3 cells MTT assay (IC50/nM);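 also: cells grown in 96-well plates with compound for 72 h, then given MTT for a further 4 h at 37 °C under 5% CO2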
H1975 cells [2] = assay: ELISA screening EGFR T790M inhibitor for cell activity, H1975 cells; format: cell-based; conditions: for Selective inhibitory activities of target on cellular level [IC50 (A431 cells)/IC50 (H1975 cells)]: ratio of IC50 values; for IC50: read-out: H1975 cells (IC50/nM)
A431 cells [3] = assay: ELISA cell activity, EGF-stimulated A431 cells; format: cell-based;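 also: Serum-starved A431 cells pretreated with compound for 1 h, then stimulated with EGF for 45 min, lysates read by ELISA (OD450 minus OD570), EGF-only wells as control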
A431 cells [4] = assay: Cytostatic activity by MTT method, A431 cells; conditions: read-out: A431 cells (IC50/nM);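 also: viability read by MTT reduction after compound exposure, with MTT incubated for a further 4 h at 37 °C under 5% CO2 in 96-well plates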
[5] = In vivo pharmacokinetic test in rats; conditions: male, SD, rat, plasma; for half-life: read-out: Half-life T½ (converted); for bioavailability: oral gavage 20 mg/kg vs IV 1 mg/kg, read-out: Oral relative bioavailability F
Excerpt: (§1) LC/MS/MS method was applied for the determination of the drug concentration in plasma at different times after the example compounds were orally and intravenously administered to rats or mice in order to study the pharmacokinetic behavior of the compounds of the invention in vivo in rats or mice and evaluate their pharmacokinetic characteristics.
(§2) Test Animals: healthy Adult male SD rats (weight 200-300 g, 6, fasted) or male CD1 mice (weight 20-30 g, 18, free access to water and food), provided by SLAC company;
(§3) Administration and Dosage: (1 mg/kg, 5 ml/kg, 5% DMAC (dimethylacetamide), 5% Solutol HS 15 (polyethylene glycol-15 hydroxystearate) and 90% saline was intravenously administered via foot dorsal vein and (20 mg/kg, 10 ml/kg, 0.5% CMC-Na solution) was administered via oral gavage to SD rats; (1 mg/kg, 5 ml/kg, 5% DMAC, 5% Solutol HS 15 and 90% Saline) was administered intravenously via tail vein and (5 mg/kg, 10 mL/kg, 0.5% CMC-Na aqueous solution) was administered via oral gavage to CD1 mice.
(§4) Blood collection: firstly, the animals which were selected to meet the test requirements prior to administration were weighed. The rats or mice were bound before the blood collection, blood from each administered rat was taken at predetermined time points (intravenous administration: blood was collected at 0.083, 0.25, 0.5, 1, 2, 4, 8, 24 h before and after administration respectively, 9 time points in total; gavage: blood was collected at 0.083, 0.25, 0.5, 1, 2, 4, 8, 24 h before and after administration respectively, 9 time points in total), about 150 μl of blood was collected via tail vein or heart (blood terminal). Blood from each administered mouse was taken blood at predetermined time points (tail vein: blood was collected at 0.083, 0.25, 0.5, 1, 2, 4, 8, 24 h, 8 time points in total; gavage: blood was collected at 0.25, 0.5, 1, 2, 4, 8, 24 h, 7 time points in total), about 150 μl of blood was collected via orbital or heart (blood terminal). Blood was transferred to a 1.5 ml tube to which K2EDTA was added previously. The collected blood sample was put on ice, and centrifuged to obtain plasma sample (2000 g, 5 min under 4° C.) within 15 minutes. All the plasma samples were stored at approximately −70° C. until analysis.
(§5) LC/MS/MS method was applied to determine the concentrations of the drug. At the same dose and administration, pharmacokinetic parameters of some example compounds of the invention in rats and mice were shown in Table 9: […]

[6] = In vivo pharmacokinetic test in mice; conditions: male, CD1, mouse, plasma; for half-life: read-out: Half-life T½ (converted); for bioavailability: oral gavage 5 mg/kg vs IV 1 mg/kg, read-out: Oral relative bioavailability F
Excerpt: as §1, §2, §3, §4, §5

[7] = Homo sapiens, NCI-H1975, MTT, 72 h
[8] = Mus musculus, NIH3T3, cytotoxicity, MTT, 72 h
[9] = Homo sapiens, NCI-H1975, ELISA, compound 1 h
[10] = Homo sapiens, A-431, ELISA, compound 1 h then EGF 45 minutes, read-out: A431 cells (IC50/nM)
[11] = ELISA, compound 1 h then EGF 45 minutes, read-out: A431 cells (IC50/nM)
[12] = IV 1 mg/kg, read-out: Clearance CL

Sequence of EGFR WT kinase (P00533 25-1210): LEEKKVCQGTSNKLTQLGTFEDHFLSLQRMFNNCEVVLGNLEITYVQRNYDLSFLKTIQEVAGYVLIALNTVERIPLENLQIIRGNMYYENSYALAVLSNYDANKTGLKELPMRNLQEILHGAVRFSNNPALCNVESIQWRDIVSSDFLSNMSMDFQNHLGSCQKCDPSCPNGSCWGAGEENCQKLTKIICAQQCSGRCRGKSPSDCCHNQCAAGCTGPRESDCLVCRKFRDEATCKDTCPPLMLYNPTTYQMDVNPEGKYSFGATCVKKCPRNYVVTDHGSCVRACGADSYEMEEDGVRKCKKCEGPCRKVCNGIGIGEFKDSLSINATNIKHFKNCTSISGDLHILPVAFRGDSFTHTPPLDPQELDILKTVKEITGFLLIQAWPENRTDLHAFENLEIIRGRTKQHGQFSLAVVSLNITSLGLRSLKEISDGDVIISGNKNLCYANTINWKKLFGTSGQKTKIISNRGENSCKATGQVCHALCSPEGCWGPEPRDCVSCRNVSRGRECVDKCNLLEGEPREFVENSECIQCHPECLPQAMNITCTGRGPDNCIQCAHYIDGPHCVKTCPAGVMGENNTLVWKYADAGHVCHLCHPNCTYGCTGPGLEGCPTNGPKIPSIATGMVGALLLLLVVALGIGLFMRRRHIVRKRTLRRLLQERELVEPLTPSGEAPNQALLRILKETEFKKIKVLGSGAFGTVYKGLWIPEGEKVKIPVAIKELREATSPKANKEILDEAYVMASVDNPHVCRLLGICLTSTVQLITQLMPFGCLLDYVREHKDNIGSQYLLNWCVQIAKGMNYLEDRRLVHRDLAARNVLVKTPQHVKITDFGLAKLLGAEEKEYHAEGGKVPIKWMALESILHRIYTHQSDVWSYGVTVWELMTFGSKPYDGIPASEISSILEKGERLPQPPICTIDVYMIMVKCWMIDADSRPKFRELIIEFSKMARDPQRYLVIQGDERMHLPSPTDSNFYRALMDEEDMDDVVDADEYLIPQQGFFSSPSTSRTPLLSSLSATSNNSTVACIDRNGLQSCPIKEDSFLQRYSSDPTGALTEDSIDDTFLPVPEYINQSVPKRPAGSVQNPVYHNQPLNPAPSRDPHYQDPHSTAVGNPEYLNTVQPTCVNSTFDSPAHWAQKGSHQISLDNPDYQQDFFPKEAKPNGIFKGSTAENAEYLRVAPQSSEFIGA

Structure (SMILES)	IC50 (EGFR WT kinase)	IC50 (H1975 cells [1]; [7])	selective inhibitory activity against the cell growth [IC50 (A431 cells)/IC50 (H1975 cells)] (H1975 cells [1]; MTT)	Selective inhibitory activities of target on cellular level [IC50 (A431 cells)/IC50 (H1975 cells)] (H1975 cells [2]; ELISA)	IC50 (H1975 cells [2]; [9])	IC50 (A431 cells [3]; [10])	IC50 (A431 cells [4]; Homo sapiens, A-431, 72 h)	IC50 (H1975 cells [1]; MTT, 72 h)	IC50 (H1975 cells [2]; ELISA, compound 1 h)	IC50 (A431 cells [3]; [11])	IC50 (A431 cells [4]; MTT, 72 h)	IC50 (NIH3T3 cells; [8])	IC50 (NIH3T3 cells; cytotoxicity, MTT, 72 h)	other results
C=CC(=O)Nc1cc(Nc2ncc(Cl)c(-c3c(C)nn(C)c3C)n2)c(OC)cc1N(C)CCN(C)C [Compound Z-91, N-(5-(5-chloro-4-(1,3,5-trimethyl-1H-pyrazol-4-yl)pyrimidin-2-ylamino)-2-((2-(dimethylamino)ethyl)(methyl)amino)-4-methoxyphenyl)acrylamide]	195 nM	36 nM	100.3	36.4	90 nM	3280 nM	3610 nM					> 10000 nM		
C=CC(=O)Nc1cc(Nc2ncc(Cl)c(-c3cnn(C)c3)n2)c(OC)cc1N1CCN(C)CC1 [Compound Z-100, N-(5-(5-chloro-4-(1-methyl-1H-pyrazol-4-yl)pyrimidin-2-ylamino)-4-methoxy-2-(4-methylpiperazin-1-yl)phenyl)acrylamide]	297 nM	24 nM	51.1	351.2	24 nM	8430 nM	1230 nM					3880 nM		
C=CC(=O)Nc1cc(Nc2ncc(Cl)c(-c3cnn(C)c3)n2)c(OC)cc1N1CCC(N(C)C)CC1 [Compound Z-89, N-(5-(5-chloro-4-(1-methyl-1H-pyrazol-4-yl)pyrimidin-2-ylamino)-2-(4-(dimethylamino)piperidin-1-yl)-4-methoxyphenyl)acrylamide]		19 nM			15 nM	4790 nM	1730 nM					4040 nM		clearance [5, 12]: 43.5 mL/min/kg; half-life ([5]; IV 1 mg/kg): 7.05 h; bioavailability [5]: 102%; AUC ([5]; route not given (IV 1 mg/kg, oral gavage 20 mg/kg), read-out: Area under the curve AUC): 7190 ng·h/mL; Cmax ([5]; route not given (IV 1 mg/kg, oral gavage 20 mg/kg), read-out: Maximum plasma concentration Cmax): 437 ng/mL; clearance [6, 12]: 47.7 mL/min/kg; half-life ([6]; IV 1 mg/kg): 4.43 h; bioavailability [6]: 59.7%; AUC ([6]; route not given (IV 1 mg/kg, oral gavage 5 mg/kg), read-out: Area under the curve AUC): 1040 ng·h/mL; Cmax ([6]; route not given (IV 1 mg/kg, oral gavage 5 mg/kg), read-out: Maximum plasma concentration Cmax): 85.3 ng/mL
C=CC(=O)Nc1cc(Nc2ncc(Cl)c(-c3ccn(C)c3)n2)c(OC)cc1N(C)CCN(C)C [Compound Z-99, N-(5-(5-chloro-4-(1-methyl-1H-pyrrol-3-yl)pyrimidin-2-ylamino)-2-((2-(dimethylamino)ethyl)(methyl)amino)-4-methoxyphenyl)acrylamide]	38 nM	40 nM	26	11.6	57 nM	663 nM	1040 nM					5990 nM		

Continued by falling IC50 (EGFR WT kinase), values first:

IC50 (EGFR WT kinase)	IC50 (H1975 cells [1]; [7])	selective inhibitory activity against the cell growth [IC50 (A431 cells)/IC50 (H1975 cells)] (H1975 cells [1]; MTT)	Selective inhibitory activities of target on cellular level [IC50 (A431 cells)/IC50 (H1975 cells)] (H1975 cells [2]; ELISA)	IC50 (H1975 cells [2]; [9])	IC50 (A431 cells [3]; [10])	IC50 (A431 cells [4]; Homo sapiens, A-431, 72 h)	IC50 (H1975 cells [1]; MTT, 72 h)	IC50 (H1975 cells [2]; ELISA, compound 1 h)	IC50 (A431 cells [3]; [11])	IC50 (A431 cells [4]; MTT, 72 h)	Structure (SMILES)	IC50 (NIH3T3 cells; [8])	IC50 (NIH3T3 cells; cytotoxicity, MTT, 72 h)	other results
33 nM		57.4	16.1				16 nM	41 nM	660 nM	918 nM	C=CC(=O)Nc1cc(Nc2ncc(Cl)c(-c3cnc4c(cnn4C)c3)n2)c(OC)cc1N(C)CCN(C)C [Compound Z-39]		8890 nM	
22 nM		66	5.2				38 nM	90 nM	469 nM	2500 nM	C=CC(=O)Nc1cc(Nc2nccc(-c3cnc4c(ccn4C)c3)n2)c(OC)cc1N(C)CCN(C)C(C)C [Compound Z-115]		> 10000 nM	
20 nM	8 nM	80.6	23.3	16 nM	372 nM	645 nM					C=CC(=O)Nc1cc(Nc2ncc(Cl)c(-c3cn(C)nc3C)n2)c(OC)cc1N(C)CCN(C)C [Compound Z-94, N-(5-(5-chloro-4-(1,3-dimethyl-1H-pyrazol-4-yl)pyrimidin-2-ylamino)-2-((2-(dimethylamino)ethyl)(methyl)amino)-4-methoxyphenyl)acrylamide]	> 10000 nM		
19 nM		50.1	21.7				49 nM	44 nM	955 nM	2480 nM	C=CC(=O)Nc1cc(Nc2nccc(-c3cnc4c(ccn4C)c3)n2)c(OC)cc1N1CC(N(C)C)C1 [Compound Z-27]		7960 nM	
14 nM		101.2	6.2				13 nM	47 nM	291 nM	1320 nM	C=CC(=O)Nc1cc(Nc2ncc(Cl)c(-c3cnc4c(ccn4C(C)C)c3)n2)c(OC)cc1N(C)CCN(C)C [Compound Z-125]		4660 nM	
8 nM		68.5	9.1				19 nM	18 nM	164 nM	1300 nM	C=CC(=O)Nc1cc(Nc2nccc(-c3cnc4c(ccn4C)c3)n2)c(OC)cc1OCCN(C)C [Compound Z-117]		> 10000 nM	
7 nM		49.5	11.5				10 nM	20 nM	229 nM	495 nM	C=CC(=O)Nc1cc(Nc2ncc(Cl)c(-c3cnc4c(ccn4C4CC4)c3)n2)c(OC)cc1N(C)CCN(C)C [Compound Z-126]		4910 nM	
4 nM	9 nM	97	15.3	10 nM	153 nM	871 nM					C=CC(=O)Nc1cc(Nc2nccc(-c3cnc4c(ccn4C)c3)n2)c(OC)cc1N(C)CCN(C)C [Compound Z-16, N-(2-((2-(dimethylamino)ethyl)(methyl)amino)-4-methoxy-5-((4-(1-methyl-1H-pyrrolo[2,3-b]pyridin-5-yl)pyrimidin-2-yl)amino)phenyl)acrylamide]	> 10000 nM		
